Test results as given in patent US8969586B2 (Bristol-Myers Squibb Company, priority 2011, dated 2015).

molecular target: Human CYP17 (Homo sapiens (Human), UniProt P05093); assay: CYP17 Total SPA Assay; format: biochemical; conditions: microsomes from HEK2 cells stably transfected with CYP17; 3H-Pregnenolone 1 uM, NADPH 2 mM; 45 minutes at room temperature
Procedure: The assays were performed in U-bottom 384-well optiplates. The final assay volume was 15 μl prepared from 7.5 μl additions of microsomes (prepared as a high-speed pellet from homogenized HEK2 cells stably transfected with CYP17), substrates (3H-Pregnenolone and NADPH) and test compounds in assay buffer (50 mM Potassium phosphate pH 7.2, 10% glycerol). The reaction was initiated by the combination of the microsomes and substrates in wells containing compound. The reaction was incubated at room temperature for 45 minutes and terminated by adding 7.5 μl of 0.2N HCl to each well. Following an incubation period of 10 minutes, anti-DHEA-coated SPA beads were added to the terminated reaction. The plate was sealed and incubated overnight with shaking at 4° C. The beads were allowed to settle in the plate for 1 hour and the plate read on a TOPCOUNT® (Perkin-Elmer) plate reader.
Inhibition data were calculated by comparison to no enzyme control reactions for 100% inhibition and vehicle-only reactions for 0% inhibition. The final concentration of reagents in the assays are NADPH, 2 mM; 3H-Pregnenolone, 1 uM; microsomes, 1.25 ug/ml; Anti-DHEA-SPA beads (0.125 mg/well) in 0.5% Triton X-100 and DMSO, 0.05%. Dose response curves were generated to determine the concentration required inhibiting 50% of enzyme activity (IC50). Compounds were dissolved at 10 mM in dimethylsulfoxide (DMSO) and evaluated at eleven concentrations, each in duplicate. IC50 values were derived by non-linear regression analysis.
Table 5 below lists the IC50 values for the following examples of this invention measured in the Total CYP17 SPA Assay hereinabove.

Sequence of Human CYP17 (P05093 whole entry): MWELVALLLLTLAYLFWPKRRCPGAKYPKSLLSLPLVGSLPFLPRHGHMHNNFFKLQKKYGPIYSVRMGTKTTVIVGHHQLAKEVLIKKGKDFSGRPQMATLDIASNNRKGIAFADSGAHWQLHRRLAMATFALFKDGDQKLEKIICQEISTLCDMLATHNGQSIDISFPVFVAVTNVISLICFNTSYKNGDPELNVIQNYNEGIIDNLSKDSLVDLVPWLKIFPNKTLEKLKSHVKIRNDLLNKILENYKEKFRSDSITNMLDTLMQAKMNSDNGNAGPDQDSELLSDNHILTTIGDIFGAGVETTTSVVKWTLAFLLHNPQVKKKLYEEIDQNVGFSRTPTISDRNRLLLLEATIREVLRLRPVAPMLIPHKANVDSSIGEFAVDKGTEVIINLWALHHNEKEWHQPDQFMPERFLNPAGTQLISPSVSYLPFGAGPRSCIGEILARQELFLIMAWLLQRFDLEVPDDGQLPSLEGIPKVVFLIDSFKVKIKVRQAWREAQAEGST

Structure (SMILES) | IC50 [nM]
COc1ccc(COc2noc3c(-c4cnccc4C)cccc23)cc1 [Example 129, 3-(4-methoxybenzyloxy)-7-(4-methylpyridin-3-yl)benzo[d] isoxazole] | 79
Clc1ccncc1-c1cccc2c(C3CC3)noc12 [Example 30, 7-(4-Chloropyridin-3-yl)-3-cyclopropylbenzo[d]isoxazole] | 48
Cc1ccncc1-c1cccc2c(-c3ccccc3)noc12 [Example 1, 7-(4-Methylpyridin-3-yl)-3-phenylbenzo[d]isoxazole] | 1.1
Fc1ccc(-c2csc3c(-c4cncc5ccccc45)cccc23)cc1 [Example 109, 4-(3-(4-Fluorophenyl)benzo[b]thiophen-7-yl)isoquinoline] | 56
Nc1ncncc1-c1ccnc2c(-c3ccc(F)cc3Cl)csc12 [Example 103, 5-(3-(2-Chloro-4-fluorophenyl)thieno[3,2-b]pyridin-7-yl)pyrimidin-4-amine] | 4
Cc1ccncc1-c1cccc2c(-c3ccc(F)cc3)noc12 [Example 6, 3-(4-Fluorophenyl)-7-(4-methylpyridin-3-yl)benzo[d]isoxazole] | 3.2
Cc1ccncc1-c1ccnc2c(-c3ccc(F)cc3)noc12 [Example 86, 3-(4-Fluorophenyl)-7-(4-methylpyridin-3-yl)isoxazolo[4,5-b]pyridine] | 3.9
Cc1ccncc1-c1ccnc2c(-c3nccs3)csc12 [Example 94, 7-(4-Methylpyridin-3-yl)-3-(thiazol-2-yl)thieno[3,2-b]pyridine] | 76
Fc1ccc(-c2csc3c(-c4cncnc4C4CC4)ccnc23)cc1 [Example 99, 7-(4-Cyclopropylpyrimidin-5-yl)-3-(4-fluorophenyl)thieno[3,2-b]pyridine] | 4
Cc1ccncc1-c1cccc2c(OCCN(C)C)noc12 [Example 68] | 524
Cc1ccncc1-c1cccc2c(OCc3ccc4ccccc4c3)noc12 [Example 124, 7-(4-methylpyridin-3-yl)-3-(naphthalen-2-ylmethoxy)benzo [d]isoxazole] | 611
Clc1ccccc1-c1noc2c(-c3cncnc3-n3cncn3)cccc12 [Example 52, 7-(4-(1H-1,2,4-Triazol-1-yl)pyrimidin-5-yl)-3-(2-chlorophenyl)benzo[d]isoxazole] | 42
Clc1ccccc1-c1noc2c(-c3cncnc3-n3nccn3)cccc12 [Example 57, 7-(4-(2H-1,2,3-Triazol-2-yl)pyrimidin-5-yl)-3-(2-chlorophenyl)benzo[d]isoxazole] | 524
Cc1ccncc1-c1cccc2c(OCc3ccc(Cl)cc3)noc12 [Example 128, 3-(4-chlorobenzyloxy)-7-(4-methylpyridin-3-yl)benzo[d] isoxazole] | 251
Cc1ncncc1-c1ccnc2c(-c3ccc(F)cc3)csc12 [Example 98, 3-(4-Fluorophenyl)-7-(4-methylpyrimidin-5-yl)thieno[3,2-b]pyridine] | 8
FC(F)(F)COc1ncncc1-c1cccc2c(-c3cnccn3)noc12 [Example 26, 3-(Pyrazin-2-yl)-7-(4-(2,2,2-trifluoroethoxy)pyrimidin-5-yl)benzo[d]isoxazole] | 65
Fc1ccc(-c2noc3c(-c4cncn5cccc45)cccc23)cc1 [Example 14, 3-(4-Fluorophenyl)-7-(pyrrolo[1,2-c]pyrimidin-4-yl)benzo[d]isoxazole] | 192
Cc1ncncc1-c1cccc2c(-c3ccccc3)noc12 [Example 4, 7-(4-Methylpyrimidin-5-yl)-3-phenylbenzo[d]isoxazole] | 357
